The results in this text go back to publication PMC5218480 (PLoS ONE, 2017).

This test has as its system MV-4-11 cells. The test can be described thus: Gene expression microarray analysis (Affymetrix PrimeView) and GSEA. Type of test: cell-based, human. Set-up: RFU PODN (11730768_x_at) / Fold change /veh PODN (11730768_x_at) / RFU LINC00158 (11744669_a_at) / Fold change /veh LINC00158 (11744669_a_at) / RFU DUSP10 (11751237_a_at) / Fold change /veh DUSP10 (11751237_a_at) / RFU ID3 (11757404_x_at) / Fold change /veh ID3 (11757404_x_at) / RFU PLEKHG5 (11737974_s_at) / Fold change /veh PLEKHG5 (11737974_s_at) / RFU LRRC4B (11730491_at) / Fold change /veh LRRC4B (11730491_at) / RFU GIMAP4 (11747438_a_at) / Fold change /veh GIMAP4 (11747438_a_at) / RFU KRT8 (11758183_x_at) / Fold change /veh KRT8 (11758183_x_at) / RFU CNN1 (11734310_a_at) / Fold change /veh CNN1 (11734310_a_at) / RFU VPS37D (11726825_at) / Fold change /veh VPS37D (11726825_at) / RFU C10orf10 (11716522_x_at) / Fold change /veh C10orf10 (11716522_x_at) / RFU KIR2DL2 /// KIR2DL4 /// KIR2DL5A /// KIR2DL5B /// KIR2DS1 /// KIR2DS2 /// KIR2DS3 /// KIR2DS4 /// KIR3DL3 /// KIR3DL3 /// KIR3DS1 (11738374_at) / Fold change /veh KIR2DL2 /// KIR2DL4 /// KIR2DL5A /// KIR2DL5B /// KIR2DS1 /// KIR2DS2 /// KIR2DS3 /// KIR2DS4 /// KIR3DL3 /// KIR3DL3 /// KIR3DS1 (11738374_at) / RFU C1QL1 (11718748_at) / Fold change /veh C1QL1 (11718748_at) / RFU TMPRSS4 (11747572_a_at) / Fold change /veh TMPRSS4 (11747572_a_at) / RFU HAMP (11756126_x_at) / Fold change /veh HAMP (11756126_x_at) / RFU RNFT2 (11725882_a_at) / Fold change /veh RNFT2 (11725882_a_at) / RFU NR4A2 (11747474_a_at) / Fold change /veh NR4A2 (11747474_a_at) / RFU ABCC12 (11746883_a_at) / Fold change /veh ABCC12 (11746883_a_at) / RFU TMEM136 (11760407_x_at) / Fold change /veh TMEM136 (11760407_x_at) / RFU CLDN22 /// WWC2 (11732394_at) / Fold change /veh CLDN22 /// WWC2 (11732394_at) / RFU HLA-DPB1 (11760878_x_at) / Fold change /veh HLA-DPB1 (11760878_x_at) / RFU SPINT1 (11716480_a_at) / Fold change /veh SPINT1 (11716480_a_at) / RFU GAP43 (11754022_s_at) / Fold change /veh GAP43 (11754022_s_at) / RFU A4GNT (11735810_at) / Fold change /veh A4GNT (11735810_at) / RFU PRB3 (11715151_x_at) / Fold change /veh PRB3 (11715151_x_at) / RFU TUBB4B (11761932_at) / Fold change /veh TUBB4B (11761932_at) / RFU CAPN14 (11732068_a_at) / Fold change /veh CAPN14 (11732068_a_at) / RFU TMCC2 (11721928_a_at) / Fold change /veh TMCC2 (11721928_a_at) / RFU IRGQ (11745062_a_at) / Fold change /veh IRGQ (11745062_a_at) / RFU FAM174B (11720279_a_at) / Fold change /veh FAM174B (11720279_a_at) / RFU TMPRSS4 (11748680_a_at) / Fold change /veh TMPRSS4 (11748680_a_at) / RFU FAM212B (11763350_a_at) / Fold change /veh FAM212B (11763350_a_at) / RFU PLEKHG5 (11743358_a_at) / Fold change /veh PLEKHG5 (11743358_a_at) / RFU ZSCAN30 (11745921_a_at) / Fold change /veh ZSCAN30 (11745921_a_at) / RFU CMKLR1 (11741424_a_at) / Fold change /veh CMKLR1 (11741424_a_at) / RFU LOC101060620 /// MAPK8IP1 (11723275_at) / Fold change /veh LOC101060620 /// MAPK8IP1 (11723275_at) / RFU SPTSSB (11747773_x_at) / Fold change /veh SPTSSB (11747773_x_at) / RFU PRSS12 (11739890_at) / Fold change /veh PRSS12 (11739890_at) / RFU BIN1 (11741810_x_at) / Fold change /veh BIN1 (11741810_x_at) / RFU WNT11 (11732464_a_at) / Fold change /veh WNT11 (11732464_a_at) / RFU C10orf10 (11716521_a_at) / Fold change /veh C10orf10 (11716521_a_at) / RFU C5orf56 (11738089_at) / Fold change /veh C5orf56 (11738089_at) / RFU CYB561 (11721691_x_at) / Fold change /veh CYB561 (11721691_x_at) / RFU ANKRD19P (11752326_a_at) / Fold change /veh ANKRD19P (11752326_a_at) / RFU OR2T12 /// OR2T33 /// OR2T8 (11738714_s_at) / Fold change /veh OR2T12 /// OR2T33 /// OR2T8 (11738714_s_at) / RFU VCAN (11748164_a_at) / Fold change /veh VCAN (11748164_a_at) / RFU JSRP1 (11732532_at) / Fold change /veh JSRP1 (11732532_at) / RFU KRTAP10-11 (11738290_x_at) / Fold change /veh KRTAP10-11 (11738290_x_at) / RFU MYO3A (11730013_a_at) / Fold change /veh MYO3A (11730013_a_at) / RFU EBF3 (11725865_a_at) / Fold change /veh EBF3 (11725865_a_at) / RFU CAMK2N1 (11719241_x_at) / Fold change /veh CAMK2N1 (11719241_x_at) / RFU C5orf56 (11738088_a_at) / Fold change /veh C5orf56 (11738088_a_at) / RFU OLFML3 (11715873_a_at) / Fold change /veh OLFML3 (11715873_a_at) / RFU LOC100653217 /// NTM (11731650_a_at) / Fold change /veh LOC100653217 /// NTM (11731650_a_at) / RFU MAPK11 (11762145_a_at) / Fold change /veh MAPK11 (11762145_a_at) / RFU FIZ1 (11724087_x_at) / Fold change /veh FIZ1 (11724087_x_at) / RFU OASL (11726364_x_at) / Fold change /veh OASL (11726364_x_at) / RFU SOX15 (11748057_x_at) / Fold change /veh SOX15 (11748057_x_at) / RFU CD79A (11719716_a_at) / Fold change /veh CD79A (11719716_a_at) / RFU HIST1H1D (11736915_at) / Fold change /veh HIST1H1D (11736915_at) / RFU CASKIN2 (11723855_a_at) / Fold change /veh CASKIN2 (11723855_a_at) / RFU LOC730098 (11760151_x_at) / Fold change /veh LOC730098 (11760151_x_at) / RFU OR4N2 (11742367_at) / Fold change /veh OR4N2 (11742367_at) / RFU PRRT2 (11749266_a_at) / Fold change /veh PRRT2 (11749266_a_at) / RFU SNX32 (11753110_a_at) / Fold change /veh SNX32 (11753110_a_at) / RFU CDHR5 (11726645_a_at) / Fold change /veh CDHR5 (11726645_a_at) / RFU RCAN1 (11760418_a_at) / Fold change /veh RCAN1 (11760418_a_at) / RFU FAM167A (11723789_a_at) / Fold change /veh FAM167A (11723789_a_at) / RFU FAM26E (11764081_at) / Fold change /veh FAM26E (11764081_at) / RFU ISYNA1 (11749810_s_at) / Fold change /veh ISYNA1 (11749810_s_at) / RFU ACY1 (11761880_at) / Fold change /veh ACY1 (11761880_at) / RFU 11764098_at / Fold change /veh 11764098_at / RFU SAMD14 (11745864_x_at) / Fold change /veh SAMD14 (11745864_x_at) / RFU NPB (11741838_a_at) / Fold change /veh NPB (11741838_a_at) / RFU TMPRSS6 (11731388_a_at) / Fold change /veh TMPRSS6 (11731388_a_at) / RFU KRTAP10-2 (11738614_at) / Fold change /veh KRTAP10-2 (11738614_at) / RFU ARHGAP8 /// PRR5-ARHGAP8 (11727945_x_at) / Fold change /veh ARHGAP8 /// PRR5-ARHGAP8 (11727945_x_at) / RFU KRTAP5-7 /// NADSYN1 (11734609_at) / Fold change /veh KRTAP5-7 /// NADSYN1 (11734609_at) / RFU RASL12 (11751679_a_at) / Fold change /veh RASL12 (11751679_a_at) / RFU CDKN2B (11736163_a_at) / Fold change /veh CDKN2B (11736163_a_at) / RFU PRF1 (11729649_at) / Fold change /veh PRF1 (11729649_at) / RFU, ZNF638 /// ZNF638-IT1 / Fold change vs veh, ZNF638 /// ZNF638-IT1 / RFU, PANK3 / Fold change vs veh, PANK3 / RFU, SH3YL1 / Fold change vs veh, SH3YL1 / RFU, ZEB2 / Fold change vs veh, ZEB2 / RFU, NRIP1 / Fold change vs veh, NRIP1 / RFU, PTTG1IP / Fold change vs veh, PTTG1IP / RFU, CAPN2 / Fold change vs veh, CAPN2 / RFU, MED14 / Fold change vs veh, MED14 / RFU, SNORA58 / Fold change vs veh, SNORA58 / RFU, C1orf63 / Fold change vs veh, C1orf63 / RFU, LRRFIP1 / Fold change vs veh, LRRFIP1 / RFU, NDUFAF7 / Fold change vs veh, NDUFAF7 / RFU, SLC12A2 / Fold change vs veh, SLC12A2 / RFU, IBTK / Fold change vs veh, IBTK / RFU, ESF1 / Fold change vs veh, ESF1 / Fold change vs veh, TMEM50B / RFU, TAOK1 / Fold change vs veh, TAOK1 / RFU, ACBD3 / Fold change vs veh, ACBD3 / RFU, TMA16 / Fold change vs veh, TMA16 / RFU, RWDD3 / Fold change vs veh, RWDD3 / RFU, BCAT1 / Fold change vs veh, BCAT1 / RFU, EDEM3 / Fold change vs veh, EDEM3 / RFU, TMEM33 / Fold change vs veh, TMEM33 / RFU, WDR75 / Fold change vs veh, WDR75 / RFU, AHCTF1 / Fold change vs veh, AHCTF1 / RFU, TFRC / Fold change vs veh, TFRC / RFU, ZDHHC17 / Fold change vs veh, ZDHHC17 / RFU, NOM1 / Fold change vs veh, NOM1 / RFU, ARL8B / Fold change vs veh, ARL8B / RFU, ZBTB11 / Fold change vs veh, ZBTB11 / RFU, TAMM41 / Fold change vs veh, TAMM41 / RFU, KIAA1704 /// LOC100996395 / Fold change vs veh, KIAA1704 /// LOC100996395 / RFU, ING1 / Fold change vs veh, ING1 / RFU, TRMT61B / Fold change vs veh, TRMT61B / RFU, FUBP3 / Fold change vs veh, FUBP3 / RFU, TP53 / Fold change vs veh, TP53 / RFU, TNKS2 / Fold change vs veh, TNKS2 / RFU, ZFP14 / Fold change vs veh, ZFP14 / RFU, ACTR2 / Fold change vs veh, ACTR2 / RFU, PPP3R1 / Fold change vs veh, PPP3R1 / RFU, PIK3R1 / Fold change vs veh, PIK3R1 / RFU, HNRNPA1 / Fold change vs veh, HNRNPA1 / RFU, RNF170 / Fold change vs veh, RNF170 / RFU, ZNF28 / Fold change vs veh, ZNF28 / RFU, RNGTT / Fold change vs veh, RNGTT / RFU, OGT / Fold change vs veh, OGT / RFU, BRD1 / Fold change vs veh, BRD1 / RFU, MARS / Fold change vs veh, MARS / RFU, ZNF655 / Fold change vs veh, ZNF655 / RFU, FAHD1 / Fold change vs veh, FAHD1 / RFU, BDP1 / Fold change vs veh, BDP1 / RFU, LRRCC1 / Fold change vs veh, LRRCC1 / RFU, ARID1A / Fold change vs veh, ARID1A / RFU, ZNF146 / Fold change vs veh, ZNF146 / RFU, ZNF330 / Fold change vs veh, ZNF330 / RFU, GPN3 / Fold change vs veh, GPN3 / RFU, C9orf123 / Fold change vs veh, C9orf123 / RFU, N4BP2L2 / Fold change vs veh, N4BP2L2 / RFU, ARFIP1 / Fold change vs veh, ARFIP1 / RFU, FAM179B / Fold change vs veh, FAM179B / RFU, BCL10 / Fold change vs veh, BCL10 / RFU, UHRF1BP1L / Fold change vs veh, UHRF1BP1L / RFU, BET1 / Fold change vs veh, BET1 / RFU, CNOT2 / Fold change vs veh, CNOT2 / RFU, ZNF268 / Fold change vs veh, ZNF268 / Fold change vs veh, ZNF507 / RFU, DGCR2 / Fold change vs veh, DGCR2 / RFU, WDSUB1 / Fold change vs veh, WDSUB1 / Fold change vs veh, HSP90B1 /// MIR3652 / RFU, ADSS / Fold change vs veh, ADSS / RFU, GK / Fold change vs veh, GK / RFU, ZNF148 / Fold change vs veh, ZNF148 / RFU, TAF9 / Fold change vs veh, TAF9 / RFU, SLC1A5 / Fold change vs veh, SLC1A5 / RFU, SLMO2 / Fold change vs veh, SLMO2 / RFU, ABCC4 / Fold change vs veh, ABCC4 / RFU, LOC101060439 /// RAP1B / Fold change vs veh, LOC101060439 /// RAP1B / RFU, RFX7 / Fold change vs veh, RFX7 / RFU, GTPBP10 / Fold change vs veh, GTPBP10 / RFU, CNEP1R1 / Fold change vs veh, CNEP1R1 / RFU, BIVM-ERCC5 /// ERCC5 / Fold change vs veh, BIVM-ERCC5 /// ERCC5 / RFU, ILF3 / Fold change vs veh, ILF3 / RFU 11762660_at / Fold change /veh 11762660_at / RFU VCAN (11757783_s_at) / Fold change /veh VCAN (11757783_s_at) / RFU DDX43 (11728927_at) / Fold change /veh DDX43 (11728927_at) / RFU KRT8 (11758188_x_at) / Fold change /veh KRT8 (11758188_x_at) / RFU NKD1 (11759106_at) / Fold change /veh NKD1 (11759106_at) / RFU SRD5A1 (11742802_a_at) / Fold change /veh SRD5A1 (11742802_a_at) / RFU TPSAB1 /// TPSB2 (11721975_s_at) / Fold change /veh TPSAB1 /// TPSB2 (11721975_s_at) / RFU GSTM3 (11746129_a_at) / Fold change /veh GSTM3 (11746129_a_at) / RFU IL23R (11737362_x_at) / Fold change /veh IL23R (11737362_x_at) / RFU TMEM51 (11727254_a_at) / Fold change /veh TMEM51 (11727254_a_at) / RFU PIWIL2 (11732686_x_at) / Fold change /veh PIWIL2 (11732686_x_at) / RFU ORM1 (11744905_x_at) / Fold change /veh ORM1 (11744905_x_at) / RFU CCDC152 (11743942_at) / Fold change /veh CCDC152 (11743942_at) / RFU ECM1 (11717891_a_at) / Fold change /veh ECM1 (11717891_a_at) / RFU IL23R (11748794_a_at) / Fold change /veh IL23R (11748794_a_at) / RFU TNFAIP8L3 (11732012_x_at) / Fold change /veh TNFAIP8L3 (11732012_x_at) / RFU MBOAT4 (11741988_at) / Fold change /veh MBOAT4 (11741988_at) / RFU 11764193_at / Fold change /veh 11764193_at / RFU TMEM53 (11763286_at) / Fold change /veh TMEM53 (11763286_at) / RFU MAGEB2 (11727129_at) / Fold change /veh MAGEB2 (11727129_at) / RFU TMEM200A (11744735_a_at) / Fold change /veh TMEM200A (11744735_a_at) / RFU CCDC152 (11751479_a_at) / Fold change /veh CCDC152 (11751479_a_at) / RFU FAM211A (11726209_a_at) / Fold change /veh FAM211A (11726209_a_at) / RFU RGS16 (11746705_a_at) / Fold change /veh RGS16 (11746705_a_at) / RFU VCAN (11755009_s_at) / Fold change /veh VCAN (11755009_s_at) / RFU RHOB (11743442_s_at) / Fold change /veh RHOB (11743442_s_at) / RFU RGS16 (11720943_a_at) / Fold change /veh RGS16 (11720943_a_at) / RFU RGS16 (11720944_at) / Fold change /veh RGS16 (11720944_at) / RFU, VPS4B / Fold change vs veh, VPS4B / RFU, CREB1 / Fold change vs veh, CREB1 / RFU, DNAJC13 / Fold change vs veh, DNAJC13 / RFU, GNAQ / Fold change vs veh, GNAQ / RFU, CDK5R1 / Fold change vs veh, CDK5R1 / RFU, ZRANB3 / Fold change vs veh, ZRANB3 / RFU, CUL4A / Fold change vs veh, CUL4A / RFU, CCNY / Fold change vs veh, CCNY / RFU, UFL1 / Fold change vs veh, UFL1 / RFU, COG3 / Fold change vs veh, COG3 / RFU, DIAPH2 / Fold change vs veh, DIAPH2 / RFU, SKA2 / Fold change vs veh, SKA2 / RFU, AFF3 / Fold change vs veh, AFF3 / RFU, LMF1 / Fold change vs veh, LMF1 / RFU, IPO11 / Fold change vs veh, IPO11 / RFU, DFFB / Fold change vs veh, DFFB / RFU, FOXP1 / Fold change vs veh, FOXP1 / RFU, CARD8 / Fold change vs veh, CARD8 / RFU, STRN3 / Fold change vs veh, STRN3 / RFU, ADK / Fold change vs veh, ADK / RFU, RASSF2 / Fold change vs veh, RASSF2 / RFU, WIPF1 / Fold change vs veh, WIPF1 / RFU, LARP1B / Fold change vs veh, LARP1B / RFU, RASA1 / Fold change vs veh, RASA1 / RFU, RB1 / Fold change vs veh, RB1 / RFU, PPFIA1 / Fold change vs veh, PPFIA1 / RFU, MAT2A / Fold change vs veh, MAT2A / RFU, CCT5 / Fold change vs veh, CCT5 / RFU, WDR92 / Fold change vs veh, WDR92 / RFU, CUX1 / Fold change vs veh, CUX1 / RFU, TTC7A / Fold change vs veh, TTC7A / RFU, TMEM135 / Fold change vs veh, TMEM135 / RFU, DEPTOR / Fold change vs veh, DEPTOR / RFU, CPM / Fold change vs veh, CPM / RFU, DNAJB6 / Fold change vs veh, DNAJB6 / RFU, CACNA2D3 / Fold change vs veh, CACNA2D3 / RFU, DTX4 / Fold change vs veh, DTX4 / RFU, TFCP2 / Fold change vs veh, TFCP2 / RFU, GMCL1 /// GMCL1P1 / Fold change vs veh, GMCL1 /// GMCL1P1 / RFU, AEBP2 / Fold change vs veh, AEBP2 / RFU, SNHG1 /// SNORD22 /// SNORD25 /// SNORD26 /// SNORD27 /// SNORD28 /// SNORD29 /// SNORD31 / Fold change vs veh, SNHG1 /// SNORD22 /// SNORD25 /// SNORD26 /// SNORD27 /// SNORD28 /// SNORD29 /// SNORD31 / Fold change (Aza/veh), C12orf56 (ProbeSet 11735607_a_at) / Fold change (ACY-1035/veh), C12orf56 (ProbeSet 11735607_a_at) / Fold change (Aza/veh), FGFR1OP (ProbeSet 11751329_s_at) / Fold change (ACY-1035/veh), FGFR1OP (ProbeSet 11751329_s_at) / Fold change (Aza/veh), VPS36 (ProbeSet 11739960_a_at) / Fold change (ACY-1035/veh), VPS36 (ProbeSet 11739960_a_at) / RFU SYPL1 (11715823_x_at) / Fold change /veh SYPL1 (11715823_x_at) / RFU IGFBP7 (11715501_s_at) / Fold change /veh IGFBP7 (11715501_s_at) / RFU REEP3 (11722064_at) / Fold change /veh REEP3 (11722064_at) / RFU IGLL1 (11728026_x_at) / Fold change /veh IGLL1 (11728026_x_at): dose or concentration left out as unconfirmed. The note with it: MV-4-11 cells, 48 hours.

Regarding `Nc1ncn([C@@H]2O[C@H](CO)[C@@H](O)[C@H]2O)c(=O)n1` [azacitidine], the “Fold change /veh JSRP1 (11732532_at)” value was 1.00.
